From US20040014772A1, “Compositions and methods for treating glomerular disorders” (priority 2000, published 2004)

How the values were obtained:
[1] = Weight loss/gain of rats before and after treatments (PAN-induced nephrotic syndrome); type: in vivo, rat; details: rats, day 7; PAN 7.5 mg/100 g BW iv; CM 120 mg/kg ip twice a day; PB 400 mg/kg ip every other day; means ± SE
Method: Two different general CYP inhibitors were used, cimetidine (CM) and piperonyl butoxide (PB). Cimetidine has imidazole and cyano groups that inhibit CYP by interacting with the heme moiety. […] To determine the effect of the CYP inhibitors in PAN- induced nephrotic syndrome, CM (120 mg/kg BW) was administered intraperitoneal 1 h prior to PAN injection and then twice a day. Piperonyl butoxide (PB) which yields a metabolite that binds to the heme moiety of CYP, was given intraperitoneal (400 mg/kg BW) 4h before PAN injection and then every other day.
Also, the CYP2B1 inhibitor piperine (PIP), a methylenedioxyphenyl compound found in black and red pepper was used. PIP is believed to inhibit CYP2B1 by forming an inhibitory complex therewith. PIP was administered at a dose of 85 mg/kg of body weight (BW) by an intraperitoneal injection 16 hours prior to PAN injection and then once a day.

[2] = test system: glomerular epithelial cells GEC; assay: PAN-induced cytotoxicity to GEC (trypan blue exclusion, LDH release); type: cell-based, rat; details: PAN 1.5 mM 48 h; preincubation CM 2 mM, PB 25 μM, RN 1 mM, PIP 0.2 mM, pyruvate 10 mM
Method: Rat GEC (kindly provided by both Dr. Saulo Klahr, Washington University School of Medicine, St. Louis, Mo., and Dr. […], University of Texas Health Science Center, San Antonio, Tex.) were maintained in RPMI-1640 medium supplemented with 10% FBS, 15 mM HEPES, insulin, penicillin, streptomycin and L-glutamine in a humidified atmosphere of 95% air-5% CO2 at 37° C. and fed at intervals of 3 days ([…] et al, 1995, Biochem. Biophys. 318(2):286-294). The cells were maintained in 75 Cm^2 tissue culture flasks and the monolayers were subcultured using 0.05% trypsin-0.53 mM EDTA in Hank's balanced salt solution (HBSS). For the experimental study, the cells were grown in 12-well tissue culture plate until confluence. On the day of experiment, the medium was discarded and the confluent GEC monolayer was washed twice with HBSS. The cells were then incubated with various concentrations of PAN (0, 0.1, 0.5, 1.0, 1.5, and 2.0 mM in HBSS) for different periods of time (0, 6 hours, 1 day, 2 days, 3 days and 4 days) at 37° C. At the end of the incubation, the incubation medium was discarded and the GEC monolayer was harvested by trypsinization with 0.05% trypsin-0.53 mM EDTA for 5 min at 37° C. Isolated cells were suspended in HBSS to give about 10^6 cells/ml. PAN-induced cytotoxicity to GEC was measured by the trypan blue exclusion assay (Baliga et al, 1996, Kidney Intl. 50:1118-1124) and lactate dehydrogenase (LDH) release assay (Baliga et al., 1998, Kidney Intl. 53:394-401.). The latter is the percentage of LDH released into the medium, to total LDH recovered from both medium and cellular fraction. […] After the incubation, the cell monolayers were washed twice with HBSS and then incubated with cytotoxic dose of PAN in HBSS for a period of time necessary to induce consistent cytotoxicity ([…], 48 h, based on the concentration and time course studies) at 37° C. PAN induced cytotoxicity on GEC was measured by trypan blue exclusion assay.

[3] = test system: CYP2B1; assay: CYP2B1 content in GEC exposed to PAN (western blot); type: cell-based, rat; details: PAN 1.5 mM for 2 hr at 37° C.; CM 2 mM, PIP 0.2 mM, pyruvate 10 mM
Text: The microsome fraction obtained was subjected to SDS-page electrophoresis in 1 mm slab gels. The separated forms were transferred from gel to a nitrocellulose sheet using a Mini Trans-blot electroblotting unit. The primary antibodies were monoclonal anti-HO-1 (OSA-111, StressGen, Victoria, BC, Canada) and monoclonal anti-CYP2B1 (PM25, Oxford Biomedical Research, Oxford, Mich., USA). Subsequent to primary and secondary antibody (peroxidase-labeled) treatment, the blots were visualized by enhanced chemiluminescence method.

[4] = test system: CYP; details: cited from earlier work

| CYP2B1 content in GEC [3] | SMILES | Body weight After Treatment (day7) [1] [g] | PAN-induced cytotoxicity to GEC [2] | inhibition of CYP [4] |
| --- | --- | --- | --- | --- |
|  | CCCCOCCOCCOCc1cc2c(cc1CCC)OCO2 [PB, piperonyl butoxide] | 253 ± 4 |  |  |
| preserved | O=C(/C=C/C=C/c1ccc2c(c1)OCO2)N1CCCCC1 [PIP, piperine] |  | markedly reduced |  |
| not | CNC(=C[N+](=O)[O-])NCCSCc1ccc(CN(C)C)o1 [RN, ranitidine] |  | did not show any protection | either weakly or not at all |
| preserve | CC(=O)C(=O)O [pyruvate] |  | prevent |  |
